Results published in patent US20250230193A1, “CYCLIC COMPOUND HAVING SELECTIVE KRAS INHIBITORY EFFECT ON HRAS AND NRAS” (CHUGAI SEIYAKU KABUSHIKI KAISHA, priority 2022, published 2025).
Where a SMILES comes first, the peptide text is derived from it. Bridges are numbered along the chain shown (N, C = ends). [ ]: non-standard residue; d: D form. The star is where a group is joined. hPhe(3,5-F2-4-CF3) = N[C@@H](CCc1cc(F)c(C(F)(F)F)c(F)c1)C(=O)O; NPrPhe(4-CF3) = CCCN[C@@H](Cc1ccc(C(F)(F)F)cc1)C(=O)O; NMeGly(cPent) = CN[C@H](C(=O)O)C1CCCC1; NMeD = CN[C@@H](CC(=O)O)C(=O)O; NMeL = CN[C@@H](CC(C)C)C(=O)O; αMeL = CC(C)C[C@](C)(N)C(=O)O; Morpholide = C1CN(*)CCO1; Sar = CNCC(=O)O

Assays:
[1] = target: GDP-bound NRAS wild-type protein (Homo sapiens, UniProt P01111); test: Binding to NRAS by surface plasmon resonance (SPR), Single Cycle Kinetics; details: for NRAS/KRAS (ratio of KD value with respect to NRAS to KD value with respect to KRAS): GDP-bound NRAS wild-type vs GDP-bound KRAS wild-type
GDP-bound NRAS wild-type protein, sequence (P01111 whole entry): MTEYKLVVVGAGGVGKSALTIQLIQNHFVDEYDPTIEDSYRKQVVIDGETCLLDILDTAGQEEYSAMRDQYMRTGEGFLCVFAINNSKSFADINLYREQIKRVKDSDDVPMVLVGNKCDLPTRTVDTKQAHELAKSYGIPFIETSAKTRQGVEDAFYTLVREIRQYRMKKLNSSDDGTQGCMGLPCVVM

[2] = target: GDP-bound HRAS wild-type protein (Homo sapiens, UniProt P01112); test: Binding to HRAS by surface plasmon resonance (SPR), Single Cycle Kinetics; details: for HRAS/KRAS (ratio of KD value with respect to HRAS to KD value with respect to KRAS): GDP-bound HRAS wild-type vs GDP-bound KRAS wild-type
GDP-bound HRAS wild-type protein, sequence (P01112 whole entry): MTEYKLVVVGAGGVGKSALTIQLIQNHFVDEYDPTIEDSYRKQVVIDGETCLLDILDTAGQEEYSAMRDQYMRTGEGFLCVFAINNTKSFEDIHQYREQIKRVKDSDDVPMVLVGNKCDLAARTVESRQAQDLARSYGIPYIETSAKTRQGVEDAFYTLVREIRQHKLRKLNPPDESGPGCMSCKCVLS

`CC[C@H](C)[C@@H]1NC(=O)[C@H](COC)N(C)C(=O)C[C@@H](C(=O)N(C)C)N(C)C(=O)[C@H](C2CCCCC2)N(C)C(=O)C2(CC(C)(C)C2)NC(=O)[C@@H]2C[C@@H](OC(C)C)CN2C(=O)[C@H](CCc2cc(F)c(C(F)(F)F)c(F)c2)NC(=O)CN(C)C(=O)[C@H](Cc2ccc(C(F)(F)F)cc2)N2CC/C=C\C[C@@H](C2=O)N(C)C(=O)CN(C)C1=O` [PP2654] was tested. Which “NRAS/KRAS (ratio of KD value with respect to GDP-bound NRAS wild-type protein to KD value with respect to KRAS)” value ([1]; class symbols) did it give?
Its value is “A (a compound having 10 or more and less than 20 is denoted as A)”.

What about the “HRAS/KRAS (ratio of KD value with respect to GDP-bound HRAS wild-type protein to KD value with respect to KRAS)” value ([2]; class symbols) of the same compound?
The value was “A (a compound having 10 or more and less than 20 is denoted as A)”.

What does the source list for `CCCN1C(=O)CN(C)C(=O)CN(C)C(=O)[C@H]([C@@H](C)CC)NC(=O)[C@H](CC(C)C)N(C)C(=O)C[C@@H](C(=O)N2CCOCC2)N(C)C(=O)[C@H](C2CCCC2)N(C)C(=O)[C@](C)(CC(C)C)NC(=O)[C@@H]2CCCN2C(=O)[C@H](CCc2cc(F)c(C(F)(F)F)c(F)c2)NC(=O)CN(C)C(=O)[C@@H]1Cc1ccc(C(F)(F)F)cc1` [PP0759] ([NMeL]I[Sar][Sar][NPrPhe(4-CF3)][Sar][hPhe(3,5-F2-4-CF3)]P[αMeL][NMeGly(cPent)][NMeD]-Morpholide; lactam N-11)?
NRAS/KRAS (ratio of KD value with respect to GDP-bound NRAS wild-type protein to KD value with respect to KRAS) ([1]; SPR): B (a compound having 3 or more and less than 10 is denoted as B); HRAS/KRAS (ratio of KD value with respect to GDP-bound HRAS wild-type protein to KD value with respect to KRAS) ([2]; SPR): B (a compound having 3 or more and less than 10 is denoted as B)

With `CCOC[C@H]1C(=O)N[C@@H]([C@@H](C)CC)C(=O)N(C)CC(=O)N(C)[C@H]2C/C=C\CCN(C2=O)[C@@H](Cc2ccc(C)cc2)C(=O)N(C)CC(=O)N[C@@H](CCc2ccc(C(F)(F)F)c(Cl)c2)C(=O)N2C[C@H](OCC)C[C@H]2C(=O)NC2(CC(C)(C)C2)C(=O)N(C)[C@@H](C2CCCC2)C(=O)N(C)[C@H](C(=O)N(C)C)CC(=O)N1C` [PP2395] as the compound, how does the “NRAS/KRAS (ratio of KD value with respect to NRAS to KD value with respect to KRAS)” value ([1]; SPR) read?
The value was “A (a compound having 10 or more and less than 20 is denoted as A)”.

And the “HRAS/KRAS (ratio of KD value with respect to HRAS to KD value with respect to KRAS)” value ([2]; SPR)?
Its value is “B (a compound having 3 or more and less than 10 is denoted as B)”.

Which “NRAS/KRAS (ratio of KD value with respect to NRAS to KD value with respect to KRAS)” value ([1]; SPR) does the source give for `CCO[C@@H]1C[C@H]2C(=O)NC3(CC(C)(C)C3)C(=O)N(C)[C@@H](C(CC)CC)C(=O)N(C)[C@H](C(=O)N(C)C)CC(=O)N(C)[C@@H](CC3CCC3)C(=O)N[C@@H]([C@@H](C)CC)C(=O)N(C)CC(=O)N(C)[C@H]3C/C=C\CCN(C3=O)[C@@H](Cc3ccc(C)cc3)C(=O)N(C)CC(=O)N[C@@H](CCc3cc(F)c(C(F)(F)F)c(F)c3)C(=O)N2C1` [PP2151] here?
The value was “A (a compound having 10 or more and less than 20 is denoted as A)”.

And the “HRAS/KRAS (ratio of KD value with respect to HRAS to KD value with respect to KRAS)” value ([2]; SPR)?
Its value is “A (a compound having 10 or more and less than 20 is denoted as A)”.

Which results are given for `CCC[C@H]1C(=O)N[C@@H](CC(C)C)C(=O)N(CC)CC(=O)N(C)[C@H]2C/C=C\CCN(C2=O)[C@@H](Cc2ccc(C)cc2)C(=O)N(C)CC(=O)N[C@@H](CCc2cc(F)c(C(F)(F)F)c(F)c2)C(=O)N2C[C@H](OCC)C[C@H]2C(=O)NC2(CCC2)C(=O)N(C)[C@@H](C2CCCC2)C(=O)N(C)[C@H](C(=O)N(C)C)CC(=O)N1C` [PP2539]?
NRAS/KRAS (ratio of KD value with respect to GDP-bound NRAS wild-type protein to KD value with respect to KRAS) ([1]; class symbols): A (a compound having 10 or more and less than 20 is denoted as A); HRAS/KRAS (ratio of KD value with respect to GDP-bound HRAS wild-type protein to KD value with respect to KRAS) ([2]; class symbols): B (a compound having 3 or more and less than 10 is denoted as B)

Which results are given for `CCO[C@@H]1C[C@H]2C(=O)NC3(CCC3)C(=O)N(C)[C@@H](C3CCCC3)C(=O)N(C)[C@H](C(=O)N(C)C)CC(=O)N(C)[C@@H](CC)C(=O)N[C@@H]([C@@H](C)CC)C(=O)N3CCC[C@H]3C(=O)N(C)[C@H]3C/C=C\CCN(C3=O)[C@@H](Cc3ccc(C(F)(F)F)cc3)C(=O)N(C)CC(=O)N[C@@H](CCc3cc(F)c(C(F)(F)F)c(F)c3)C(=O)N2C1` [PP1056]?
NRAS/KRAS (ratio of KD value with respect to NRAS to KD value with respect to KRAS) ([1]; KD ratio, SPR): A (a compound having 10 or more and less than 20 is denoted as A); HRAS/KRAS (ratio of KD value with respect to HRAS to KD value with respect to KRAS) ([2]; KD ratio, SPR): A (a compound having 10 or more and less than 20 is denoted as A)

With `CCO[C@@H]1C[C@H]2C(=O)NC3(CC(C)(C)C3)C(=O)N(C)[C@@H](C3CCCCC3)C(=O)N(C)[C@H](C(=O)N(C)C)CC(=O)N(C)[C@@H](COC)C(=O)N[C@@H]([C@@H](C)CC)C(=O)N(C)CC(=O)N(C)[C@H]3C/C=C\CCN(C3=O)[C@@H](Cc3ccc(C(F)(F)F)cc3)C(=O)N(C)CC(=O)N[C@@H](CCc3ccc(Cl)c(Cl)c3)C(=O)N2C1` [PP2661] as the compound, how does the “NRAS/KRAS (ratio of KD value with respect to GDP-bound NRAS wild-type protein to KD value with respect to KRAS)” value ([1]; class symbols) read?
The value was “AA (a compound having 20 or more is denoted as AA)”.

What about the “HRAS/KRAS (ratio of KD value with respect to GDP-bound HRAS wild-type protein to KD value with respect to KRAS)” value ([2]; class symbols) of the same compound?
The value was “A (a compound having 10 or more and less than 20 is denoted as A)”.
